These results are taken from patent US8586579B2, “Anellated pyridine compounds” (Hoffmann-La Roche Inc., priority 2010, dated 2013).

The pKi is −log10 of the Ki, conventionally taken in molar units. What is called melting point is the temperature, or range, at which the solid turns liquid.

pKi: −log10 of the molar value. Read-outs that look alike come from different tables or passages of the source.

The target in one data set is human D2 receptor (Homo sapiens (Human), UniProt P14416). Briefly: Radioligand binding assay, [3H]-spiperone, human D2 receptor. As to conditions: membranes of HEK293 EBNA cells expressing human D2; 0.7 nM [3H]-spiperone. Summed up:
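Competition binding used ~0.7 nM [3H]-spiperone, 1 h at room temperature, pH 7.4 Tris/salt buffer, on transiently transfected HEK293 EBNA membranes bearing human D2.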

A further data set deals with human D3 receptor (Homo sapiens (Human), UniProt P35462). Briefly: Radioligand binding assay, [3H]-spiperone, human D3 receptor. As to conditions: membranes of HEK293 EBNA cells expressing human D3; 0.5 nM [3H]-spiperone. In a few lines: (§1)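 Incubation was 1 h at RT, using 1.1 nM [3H]-ketanserin at 5-HT2A or 0.5 nM [3H]-spiperone at D3, on membranes of transiently transfected HEK293 EBNA cells. Nonspecific binding was set with 10 μM unlabelled spiperone.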

The next data set concerns the target human 5-HT2A receptor (Homo sapiens (Human), UniProt P28223). Briefly: Radioligand binding assay, [3H]-ketanserin, human 5-HT2A receptor. Summed up: as §1
Where [1] appears, read: membranes of HEK293 EBNA cells expressing human 5-HT2A, 1.1 nM [3H]-ketanserin.

Sequence of human D3 receptor (P35462 whole entry): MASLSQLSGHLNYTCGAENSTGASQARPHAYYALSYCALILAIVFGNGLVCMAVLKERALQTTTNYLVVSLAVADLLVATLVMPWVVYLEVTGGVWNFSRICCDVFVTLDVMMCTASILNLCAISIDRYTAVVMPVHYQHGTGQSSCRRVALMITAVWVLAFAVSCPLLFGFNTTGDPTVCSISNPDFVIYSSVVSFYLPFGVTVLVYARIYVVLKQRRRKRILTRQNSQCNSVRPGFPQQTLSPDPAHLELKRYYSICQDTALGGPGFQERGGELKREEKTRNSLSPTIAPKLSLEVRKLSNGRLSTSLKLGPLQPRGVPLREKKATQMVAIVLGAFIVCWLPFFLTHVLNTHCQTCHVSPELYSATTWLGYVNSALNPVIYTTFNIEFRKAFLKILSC
Sequence of human D2 receptor (P14416 whole entry): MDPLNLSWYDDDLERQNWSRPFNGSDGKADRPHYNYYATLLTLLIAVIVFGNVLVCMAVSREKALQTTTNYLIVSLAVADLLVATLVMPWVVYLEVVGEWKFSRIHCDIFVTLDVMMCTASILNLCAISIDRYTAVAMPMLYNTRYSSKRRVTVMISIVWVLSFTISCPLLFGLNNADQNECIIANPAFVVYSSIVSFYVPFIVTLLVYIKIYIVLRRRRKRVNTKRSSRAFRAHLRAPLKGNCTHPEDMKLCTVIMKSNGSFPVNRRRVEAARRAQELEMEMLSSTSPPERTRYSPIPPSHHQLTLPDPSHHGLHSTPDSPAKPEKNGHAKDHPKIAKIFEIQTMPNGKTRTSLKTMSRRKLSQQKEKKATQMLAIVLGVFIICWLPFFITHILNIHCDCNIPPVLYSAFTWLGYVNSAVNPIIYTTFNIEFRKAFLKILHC
Sequence of human 5-HT2A receptor (P28223 whole entry): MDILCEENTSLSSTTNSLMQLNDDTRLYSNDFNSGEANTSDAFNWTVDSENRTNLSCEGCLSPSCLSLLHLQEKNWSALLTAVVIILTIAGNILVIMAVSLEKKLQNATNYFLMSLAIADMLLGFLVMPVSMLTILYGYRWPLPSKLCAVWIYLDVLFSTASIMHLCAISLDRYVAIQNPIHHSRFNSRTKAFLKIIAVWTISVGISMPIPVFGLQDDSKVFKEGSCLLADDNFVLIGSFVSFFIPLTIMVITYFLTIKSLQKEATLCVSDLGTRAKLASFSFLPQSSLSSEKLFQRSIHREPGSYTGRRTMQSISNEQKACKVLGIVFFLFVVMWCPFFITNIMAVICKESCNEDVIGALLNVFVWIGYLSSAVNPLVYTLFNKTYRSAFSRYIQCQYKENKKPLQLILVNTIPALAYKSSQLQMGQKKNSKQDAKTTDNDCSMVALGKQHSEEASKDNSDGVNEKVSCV

Compound `COCCC(=O)N[C@H]1CC[C@H](CCN2CCN(c3nccc4c3CCO4)CC2)CC1` [Example 35, trans-N-(4-{2-[4-(2,3-Dihydrofuro[3,2-c]pyridin-4-yl)-piperazin-1-yl]-ethyl}-cyclohexyl)-3-methoxypropanamide] gave a melting point of 246.5 °C. Moreover, the pKi on human D2 receptor is 5.83. The negative-log Ki (pKi) at human D3 receptor is 7.76. Besides, the pKi on human 5-HT2A receptor (setting [1]) is 7.62.
For `CCCC(=O)N[C@H]1CC[C@H](CCN2CCN(c3nccc4c3CCO4)CC2)CC1` [Example 92, trans-N-(4-{2-[4-(2,3-Dihydro-furo[3,2-c]pyridin-4-yl)-piperazin-1-yl]-ethyl}-cyclohexyl)-butyramide], the melting point was found to be 191 °C. For the same compound, the pKi on human D2 receptor was 6.08. The negative logarithm of the Ki (pKi) at human D3 receptor is 7.81. The pKi on human 5-HT2A receptor (setting [1]) is 7.64.
In turn, `CS(=O)(=O)c1ccc(C(=O)N[C@H]2CC[C@H](CCN3CCN(c4nccc5c4CCO5)CC3)CC2)s1` [Example 115, 5-Methanesulfonyl-thiophene-2-carboxylic acid trans-(4-{2-[4-(2,3-dihydro-furo[3,2-c]pyridin-4-yl)-piperazin-1-yl]-ethyl}-cyclohexyl)-amide] showed a melting point of 229 °C. In addition, the pKi on human D2 receptor is 6.29. At human D3 receptor, the pKi was 7.47. At human 5-HT2A receptor (setting [1]), the pKi is 8.02.
For `CN1CCN(c2ccc(C(=O)N[C@H]3CC[C@H](CCN4CCN(c5nccc6c5CCO6)CC4)CC3)cc2)CC1` [Example 118, trans-N-(4-{2-[4-(2,3-Dihydro-furo[3,2-c]pyridin-4-yl)-piperazin-1-yl]-ethyl}-cyclohexyl)-4-(4-methyl-piperazin-1-yl)-benzamide] the same measures were 236 °C, 6.75, 7.83 and 8.35.
Turning to `O=C(N[C@H]1CC[C@H](CCN2CCN(c3nccc4c3CCO4)CC2)CC1)c1ccc2ncccc2c1` [Example 128, Quinoline-6-carboxylic acid trans-(4-{2-[4-(2,3-dihydro-furo[3,2-c]pyridin-4-yl)-piperazin-1-yl]-ethyl}-cyclohexyl)-amide], the melting point is 227 °C. Also, the pKi on human D2 receptor was 6.30. In addition, the negative logarithm of the Ki (pKi) on human D3 receptor was 7.69. At human 5-HT2A receptor (setting [1]), the pKi was 7.63.
On to `CO[C@H]1CC[C@H](CC(=O)N[C@H]2CC[C@H](CCN3CCN(c4nccc5c4CCO5)CC3)CC2)C1` [Example 90, trans-N-(4-{2-[4-(2,3-Dihydro-furo[3,2-c]pyridin-4-yl)-piperazin-1-yl]-ethyl}-cyclohexyl)-2-((1S,3S)-3-methoxy-cyclopentyl)-acetamide], for which the melting point turned out to be 241 °C. Besides, the pKi on human D2 receptor is 5.89. In addition, on human D3 receptor, the pKi was 7.71. Also, the pKi at human 5-HT2A receptor (setting [1]) was 7.65.
`COCC(=O)N[C@H]1CC[C@H](CCN2CCN(c3nccc4c3CCO4)CC2)CC1` [Example 38, trans-N-(4-{2-[4-(2,3-Dihydrofuro[3,2-c]pyridin-4-yl)-piperazin-1-yl]-ethyl}-cyclohexyl)-2-methoxyacetamide] yielded a melting point of 169.5 °C. The pKi on human D2 receptor is 5.81. Also, on human D3 receptor, the pKi is 7.34. For the same compound, the pKi at human 5-HT2A receptor is 7.96.
The compound `CCCCC(=O)N[C@H]1CC[C@H](CCN2CCN(c3nccc4c3CCO4)CC2)CC1` [Example 94, Pentanoic acid trans-(4-{2-[4-(2,3-dihydro-furo[3,2-c]pyridin-4-yl)-piperazin-1-yl]-ethyl}-cyclohexyl)-amide] showed a melting point of 180.5 °C. Also, the pKi at human D2 receptor is 5.94. Further, the pKi on human D3 receptor was 7.72. Further, the pKi at human 5-HT2A receptor (setting [1]) is 7.61.
For `Cc1cnc(N2CCN(CC[C@H]3CC[C@H](NC(=O)C4CCOCC4)CC3)CC2)c2ccoc12` [Example 105, trans-Tetrahydro-pyran-4-carboxylic acid (4-{2-[4-(7-methyl-furo[3,2-c]pyridin-4-yl)-piperazin-1-yl]-ethyl}-cyclohexyl)-amide], the melting point is 228 °C. In addition, the negative logarithm of the Ki (pKi) at human D2 receptor was 5.95. The pKi on human D3 receptor is 7.14. In addition, at human 5-HT2A receptor, the negative-log Ki (pKi) is 8.25.
`O=C(N[C@H]1CC[C@H](CCN2CCN(c3nccc4c3CCO4)CC2)CC1)c1ccc(N2CCS(=O)(=O)CC2)cc1` [Example 125, trans-N-(4-{2-[4-(2,3-Dihydro-furo[3,2-c]pyridin-4-yl)-piperazin-1-yl]-ethyl}-cyclohexyl)-4-(1,1-dioxo-1λ6-thiomorpholin-4-yl)-benzamide] registered a melting point of 261.5 °C. Also, the negative logarithm of the Ki (pKi) on human D2 receptor is 6.93. Moreover, on human D3 receptor, the pKi was 7.84. Moreover, the pKi at human 5-HT2A receptor (setting [1]) was 7.78.
The matching figures for `O=C(N[C@H]1CC[C@H](CCN2CCN(c3nccc4c3CCO4)CC2)CC1)C1CCC1` [Example 52, Cyclobutanecarboxylic acid trans-(4-{2-[4-(2,3-dihydro-furo[3,2-c]pyridin-4-yl)-piperazin-1-yl]-ethyl}-cyclohexyl)-amide]: 202 °C, 6.26, 7.80 and 8.00.
Compound `O=C(CC1CCC1)N[C@H]1CC[C@H](CCN2CCN(c3nccc4c3CCO4)CC2)CC1` [Example 73, trans-2-Cyclobutyl-N-(4-{2-[4-(2,3-dihydro-furo[3,2-c]pyridin-4-yl)-piperazin-1-yl]-ethyl}-cyclohexyl)-acetamide] registered a melting point of 193 °C. Also, the pKi at human D2 receptor was 6.22. Besides, at human D3 receptor, the pKi is 8.05. Further, the pKi at human 5-HT2A receptor (setting [1]) was 7.88.
